Read-outs that look alike come from different tables or passages of the source.
How the values were obtained:
[1] = system: Equisetum arvense and Taraxacum; conditions: 400 mL/m^2; for Killing Rate of Weeds: after 9 days from spraying
Description: (§1) A mixture of Equisetum arvense and Taraxacum having an average height of about 20 cm and grass having an average height of about 10 cm in a test field having an area of 0.5 m^2 in Yokohama-city, Kanagawa-prefecture, Japan were subjected to a field weeding test by spraying an aqueous solution of sodium hydrogen carbonate with a watering pot in the last third of October.
(§2) An aqueous solution of sodium hydrogen carbonate having a concentration of 2.5 weight %, 5.0 weight %, 8.0 weight % and 10.0 weight %, respectively, was uniformly sprayed to a mixture of Equisetum arvense and Taraxacum and grass in an amount of 400 mL/m^2 for each. […] The killing degree of the weeds was measured by the naked eye after 9 days from spraying to determine the killing rate of weeds in the same manner as in EXAMPLE 1.

grass = conditions: 400 mL/m^2; for Killing Rate of Weeds: after 9 days from spraying
Description: as §1, §2

[2] = system: Equisetum arvense and Taraxacum; conditions: 400 ml/m^2 sprayed on days 0,7,14,21, weeds cut on day 54
Description: (§3) A mixture of Equisetum arvense and Taraxacum having an average height of about 5 cm and Imperata cylindrica having an average height of about 5 cm in a test field having an area of 0.5 m^2 in Yokohama-city, Kanagawa-prefecture, Japan were subjected to the following field weeding test from the last third of July to the first third of November. […] Incidentally, the area ratio of weeds was assumed as 100% when the weeds proliferated to such an extent that they completely concealed the soil surface.
(§4) A saturated aqueous solution of sodium hydrogen carbonate was sprayed to each test field in an amount of 400 ml/m^2 by a watering pot, and then sprayed in the same way after 7 days, 14 days and 21 days, respectively. The area ratio and average height of weeds were measured by the naked eye after 26 days from the start of spraying. The weeds were totally cut after 54 days from the start of spraying. Thereafter, the weeds were left to grow without spraying an aqueous solution of sodium hydrogen carbonate. The area ratio and average height of weeds were measured by the naked eye after 64 days, 67 days, 73 days, 78 days, 86 days, 91 days and 95 days, respectively, from the start of spraying. For comparison, a mixture of Equisetum arvense and Taraxacum and Imperata cylindrica, to which an aqueous solution of sodium hydrogen carbonate was not sprayed, were subjected to the same measurement with respect to an area ratio and an average height.

Imperata cylindrica = conditions: 400 ml/m^2 sprayed on days 0,7,14,21, weeds cut on day 54
Description: as §3, §4

[3] = system: Weeds mainly consisting of Japanese nutmeg, Coix lacryma-jobi, Pueraria lobata and Solidago serotina; conditions: 70 g/L, 16 litter/m^2, 150 kgf/cm^2, 60 second/m^2; weeds about 60 cm; leaves turned yellow or black
[4] = system: Weeds mainly consisting of Pueraria lobata, Cayratia japonica and Solidago serotina; conditions: 80° C., 140 g/L, 16 litter/m^2, 150 kgf/cm^2, 60 second/m^2; weeds about 60 cm; leaves turned black
[5] = saturated aqueous solution
[6] = system: Equisetaceae weeds, Leguminosae weeds and wide leaves weeds
[7] = system: Gramineae weeds except for grass (Zoysia japonica); conditions: spraying once a week
[8] = 2.5-10.0 weight % solution, last third of October

pH [5]: about 8.2
Compound: O=C([O-])O.[Na+] [sodium hydrogen carbonate]
time after spraying from which part of the weeds started to die with leaves turned black [1, 8]: 2 to 3 days
Killing Rate of Weeds ([1]; concentration 5.0 weight %): 30%
Killing Rate of Weeds ([1]; concentration 8.0 weight %): 65%
Killing Rate of Weeds ([1]; concentration 10.0 weight %): 80%
Killing Rate of Weeds ([1]; concentration 25 weight %): 10%
time after spraying from which part of grass started to die with leaves turned yellow (grass; [8]): 2 to 3 days
Killing Rate of Weeds (grass; concentration 5.0 weight %): 50%
Killing Rate of Weeds (grass; concentration 8.0 weight %): 70%
Killing Rate of Weeds (grass; concentration 10.0 weight %): 85%
Killing Rate of Weeds (grass; concentration 25 weight %): 40%
Area Ratio of Weeds ([2]; 0 days passed): 50%
Average Height ([2]; 0 days passed): 5 cm
Area Ratio of Weeds ([2]; 7 days passed): 5%
Average Height ([2]; 7 days passed): 0 cm
Area Ratio of Weeds ([2]; 14 days passed): 5%
Average Height ([2]; 14 days passed): 0 cm
Area Ratio of Weeds ([2]; 21 days passed): 5%
Average Height ([2]; 21 days passed): 0 cm
Area Ratio of Weeds ([2]; 26 days passed): 5%
Average Height ([2]; 26 days passed): 0 cm
Area Ratio of Weeds ([2]; 54 days passed): 0%
Average Height ([2]; 54 days passed): 0 cm
Area Ratio of Weeds ([2]; 64 days passed): 0%
Average Height ([2]; 64 days passed): 0 cm
Area Ratio of Weeds ([2]; 67 days passed): 0%
Average Height ([2]; 67 days passed): 0 cm
Area Ratio of Weeds ([2]; 73 days passed): 5%
Average Height ([2]; 73 days passed): 5 cm
Area Ratio of Weeds ([2]; 78 days passed): 10%
Average Height ([2]; 78 days passed): 7 cm
Area Ratio of Weeds ([2]; 86 days passed): 10%
Average Height ([2]; 86 days passed): 10 cm
Area Ratio of Weeds ([2]; 91 days passed): 20%
Average Height ([2]; 91 days passed): 10 cm
Area Ratio of Weeds ([2]; 95 days passed): 20%
Average Height ([2]; 95 days passed): 10 cm
Area Ratio of Weeds (Imperata cylindrica; 0 days passed): 5%
Average Height (Imperata cylindrica; 0 days passed): 5 cm
Area Ratio of Weeds (Imperata cylindrica; 7 days passed): 10%
Average Height (Imperata cylindrica; 7 days passed): 15 cm
Area Ratio of Weeds (Imperata cylindrica; 14 days passed): 30%
Average Height (Imperata cylindrica; 14 days passed): 25 cm
Area Ratio of Weeds (Imperata cylindrica; 21 days passed): 50%
Average Height (Imperata cylindrica; 21 days passed): 45 cm
Area Ratio of Weeds (Imperata cylindrica; 26 days passed): 50%
Average Height (Imperata cylindrica; 26 days passed): 50 cm
Area Ratio of Weeds (Imperata cylindrica; 54 days passed): 0%
Average Height (Imperata cylindrica; 54 days passed): 0 cm
Area Ratio of Weeds (Imperata cylindrica; 64 days passed): 0%
Average Height (Imperata cylindrica; 64 days passed): 0 cm
Area Ratio of Weeds (Imperata cylindrica; 67 days passed): 0%
Average Height (Imperata cylindrica; 67 days passed): 0 cm
Area Ratio of Weeds (Imperata cylindrica; 73 days passed): 0%
Average Height (Imperata cylindrica; 73 days passed): 0 cm
Area Ratio of Weeds (Imperata cylindrica; 78 days passed): 5%
Average Height (Imperata cylindrica; 78 days passed): 5 cm
Area Ratio of Weeds (Imperata cylindrica; 86 days passed): 5%
Average Height (Imperata cylindrica; 86 days passed): 7 cm
Area Ratio of Weeds (Imperata cylindrica; 91 days passed): 5%
Average Height (Imperata cylindrica; 91 days passed): 7 cm
Area Ratio of Weeds (Imperata cylindrica; 95 days passed): 5%
Average Height (Imperata cylindrica; 95 days passed): 10 cm
state of weeds the next day of treatment [3]: killed
state of weeds the next day of treatment [4]: killed
time after spraying until weeds start to die ([6]; in autumn): 4 to 5 days
time after spraying until weeds start to die ([6]; in summer): 1 to 2 days
duration of spraying until weeds start to die [7]: 2-3 weeks
